Test: Release in artificial intestinal juice
Format: physicochemical
Conditions: for Release in artificial intestinal juice, percent of the substance released: permeable bag, amount calculated on 100 mg free base
Procedure: Investigations on release were carried out in a Sotax AT7 smart release apparatus with UV measurement (Perkin Elmer photometer).
A vessel with Wood apparatus was used (for intrinsic release).
A pressing of 0.5 cm^2 surface area (diameter 8 mm) was produced with a force of 200 N using approximately 100 mg of active ingredient.
Release was carried out in a release medium, which is composed as described below: • Intestinal juice without pancreas powder, pH 6.8 (analogous to Ph. Eur.); 250.0 ml 6.8 g of potassium dihydrogenphosphate R+0.896 g of NaOH+water to 1000.0 ml.
Release was carried out in a release volume of in each case 500±5 ml at a temperature of the release medium of 37±1° C. with a stirring speed of 100±5 rpm.
The content determination was carried out by means of spectroscopic methods (UV spectroscopy, wavelength: 271 nm, cuvette: 10 mm). Sample taking was carried out manually.
In this release experiment, the individual compounds were placed in a permeable bag in an amount in each case calculated on 100 mg of the free base.
The results, expressed in percent of the substance released, are reproduced in the following tables. In this case, the compounds denote: HCl: hydrochloride; A: cinnamate; B: palmitate; C: decanoate; E: hemi-fumarate and F: hemi-sebacate.

Row | Compound | Release in artificial intestinal juice, percent of the substance released (t 2 min) [%] | Release in artificial intestinal juice, percent of the substance released (t 4 min) [%] | Release in artificial intestinal juice, percent of the substance released (t 6 min) [%] | Release in artificial intestinal juice, percent of the substance released (t 8 min) [%] | Release in artificial intestinal juice, percent of the substance released (t 10 min) [%] | Release in artificial intestinal juice, percent of the substance released (t 12 min) [%] | Release in artificial intestinal juice, percent of the substance released (t 15 min) [%] | Release in artificial intestinal juice, percent of the substance released (t 30 min) [%] | release rate compared to the hydrochloride salt (in artificial intestinal juice)
1 | CN(C)CC1CCCCC1(O)c1cccc(O)c1.O=C(O)C=Cc1ccccc1 (centres unmarked) [A-2] | 53.05 | 76.86 | 86.98 | 96.27 | 94.24 | 95.42 | 98.53 | 98.80 | 
2 | CCCCCCCCCCCCCCCC(=O)O.CN(C)CC1CCCCC1(O)c1cccc(O)c1 [B-1] | 17.63 | 31.60 | 55.36 | 53.71 | 67.26 | 69.49 | 76.13 | 95.50 | 
3 | CN(C)CC1CCCCC1(O)c1cccc(O)c1.CN(C)CC1CCCCC1(O)c1cccc(O)c1.O=C(O)C=CC(=O)O (centres unmarked) [E-2] | 95.38 | 96.67 | 95.80 | 96.46 | 96.47 | 96.45 | 96.19 | 96.42 | 
4 | CN(C)C[C@H]1CCCC[C@]1(O)c1cccc(O)c1.Cl [HCl-2] | 97.72 | 98.52 | 100.41 | 98.83 | 100.29 | 98.70 | 100.05 | 99.96 | 
5 | CN(C)CC1CCCCC1(O)c1cccc(O)c1.CN(C)CC1CCCCC1(O)c1cccc(O)c1.O=C(O)C=CC(=O)O (centres unmarked) [E-1] | 99.32 | 100.25 | 99.24 | 99.47 | 100.58 | 99.42 | 98.40 | 100.24 | 
6 | CCCCCCCCCC(=O)O.CN(C)CC1CCCCC1(O)c1cccc(O)c1 (centres unmarked) [decanoate] |  |  |  |  |  |  |  |  | decreased release rates compared to the hydrochloride salt

From patent publication US20110251286A1, “Crystalline salts and/or co-crystals of O-desmethyltramadol” (GRUENENTHAL GmbH, priority 2010, published 2011)
